# Key:
# G4646 CORN = test: Test D Corn and Sorghum Herbicide Test; format: in vivo, Zea mays
# GREEN FOXTAIL = test: Test D; format: in vivo, Setaria viridis
# GIANT FOXTAIL = test: Test D; format: in vivo, Setaria faberii
# FALL PANICUM = test: Test D; format: in vivo, Panicum dichotomiflorum
# LARGE CRABGRASS = test: Test D; format: in vivo, Digitaria sanguinalis
# BARNYARDGRASS = test: Test D; format: in vivo, Echinochloa crus-galli
# Procedure: The Corn and Sorghum Herbicide Test included the following species in both the preemergence and postemergence evaluations:
# Postemergence plantings were grown in Sassafras sandy loam soil. Corn and soybeans were grown in separate 25 cm diameter containers. Sorghum and the seven grass weed species were grown in two 18 cm diameter containers, 4 species per container. The seven broadleaf weed species were also grown in two 18 cm diameter containers, 4 species in one container, 3 species in the second container. One additional planting of corn in an 18 cm diameter container was made. The soil surface of this additional container of corn was covered with the absorbent, perlite, before spray treatment so that test chemicals would enter the plant only via the foliage. The plants were grown 10-21 days, dependent upon the species and then sprayed postemergence with the test chemicals dissolved in a nonpytotoxic solvent.
# Preemergence plantings were grown in fertilized Tama silt loam soil. These plantings are identical to those described in the postemergence section, with the exception of the corn planting having perlite covering the soil surface. These plantings were made the day of or the day before spraying the test chemicals dissolved in a nonphytotoxic solvent.
# Treated plants and controls were maintained in the greenhouse for 2 to 4 weeks. Visual planting response ratings were made on a percentage scale of 0 to 100 in comparison with a control where 0=no injury, and 100=death.
# G522 SORGHUM = test: Test D; format: in vivo, Sorghum bicolor
# PURPLE NUTSEDGE = test: Test D; format: in vivo, Cyperus rotundus
# IVY MORNINGLORY = test: Test D; format: in vivo, Ipomoea hederacea
# JIMSONWEED = test: Test D; format: in vivo, Datura stramonium
smiles,measurement,setting,value
"C=C(c1ccccc1Cl)C(O)(Cn1cncn1)c1ccc(Cl)cc1Cl (stereo not drawn) [Example 33, 2-(2,4-Dichlorophenyl)-3-(2-chlorophenyl)-1-(1H-1,2,4-triazol-1-yl)-3-buten-2-ol]",plant response,G4646 CORN; POSTEMERGENCE 0250 GM/HA,0%
same,plant response,G4646 CORN; POSTEMERGENCE 0500 GM/HA,0%
same,plant response,G4646 CORN; POSTEMERGENCE 1000 GM/HA,0%
same,plant response,G4646 CORN; PREEMERGENCE 0250 GM/HA,0%
same,plant response,G4646 CORN; PREEMERGENCE 0500 GM/HA,0%
same,plant response,G4646 CORN; PREEMERGENCE 1000 GM/HA,0%
same,plant response,GREEN FOXTAIL; POSTEMERGENCE 0250 GM/HA,0%
same,plant response,GREEN FOXTAIL; POSTEMERGENCE 0500 GM/HA,0%
same,plant response,GREEN FOXTAIL; POSTEMERGENCE 1000 GM/HA,0%
same,plant response,GREEN FOXTAIL; PREEMERGENCE 0250 GM/HA,0%
same,plant response,GREEN FOXTAIL; PREEMERGENCE 0500 GM/HA,0%
same,plant response,GREEN FOXTAIL; PREEMERGENCE 1000 GM/HA,0%
same,plant response,GIANT FOXTAIL; POSTEMERGENCE 0250 GM/HA,0%
same,plant response,GIANT FOXTAIL; POSTEMERGENCE 0500 GM/HA,0%
same,plant response,GIANT FOXTAIL; POSTEMERGENCE 1000 GM/HA,0%
same,plant response,GIANT FOXTAIL; PREEMERGENCE 0250 GM/HA,0%
same,plant response,GIANT FOXTAIL; PREEMERGENCE 0500 GM/HA,0%
same,plant response,GIANT FOXTAIL; PREEMERGENCE 1000 GM/HA,0%
same,plant response,FALL PANICUM; POSTEMERGENCE 0250 GM/HA,0%
same,plant response,FALL PANICUM; POSTEMERGENCE 0500 GM/HA,0%
same,plant response,FALL PANICUM; POSTEMERGENCE 1000 GM/HA,0%
same,plant response,FALL PANICUM; PREEMERGENCE 0250 GM/HA,0%
same,plant response,FALL PANICUM; PREEMERGENCE 0500 GM/HA,0%
same,plant response,FALL PANICUM; PREEMERGENCE 1000 GM/HA,0%
same,plant response,LARGE CRABGRASS; POSTEMERGENCE 0250 GM/HA,0%
same,plant response,LARGE CRABGRASS; POSTEMERGENCE 0500 GM/HA,0%
same,plant response,LARGE CRABGRASS; POSTEMERGENCE 1000 GM/HA,0%
same,plant response,LARGE CRABGRASS; PREEMERGENCE 0250 GM/HA,0%
same,plant response,LARGE CRABGRASS; PREEMERGENCE 0500 GM/HA,0%
same,plant response,LARGE CRABGRASS; PREEMERGENCE 1000 GM/HA,0%
same,plant response,BARNYARDGRASS; POSTEMERGENCE 0250 GM/HA,0%
same,plant response,BARNYARDGRASS; POSTEMERGENCE 0500 GM/HA,0%
same,plant response,BARNYARDGRASS; POSTEMERGENCE 1000 GM/HA,0%
same,plant response,BARNYARDGRASS; PREEMERGENCE 0250 GM/HA,0%
same,plant response,BARNYARDGRASS; PREEMERGENCE 0500 GM/HA,0%
same,plant response,BARNYARDGRASS; PREEMERGENCE 1000 GM/HA,0%
same,plant response,G522 SORGHUM; POSTEMERGENCE 0250 GM/HA,0%
same,plant response,G522 SORGHUM; POSTEMERGENCE 0500 GM/HA,0%
same,plant response,G522 SORGHUM; POSTEMERGENCE 1000 GM/HA,0%
same,plant response,G522 SORGHUM; PREEMERGENCE 0250 GM/HA,0%
same,plant response,G522 SORGHUM; PREEMERGENCE 0500 GM/HA,0%
same,plant response,G522 SORGHUM; PREEMERGENCE 1000 GM/HA,0%
same,plant response,PURPLE NUTSEDGE; POSTEMERGENCE 0250 GM/HA,0%
same,plant response,PURPLE NUTSEDGE; POSTEMERGENCE 0500 GM/HA,0%
same,plant response,PURPLE NUTSEDGE; POSTEMERGENCE 1000 GM/HA,0%
same,plant response,PURPLE NUTSEDGE; PREEMERGENCE 0250 GM/HA,0%
same,plant response,PURPLE NUTSEDGE; PREEMERGENCE 0500 GM/HA,0%
same,plant response,PURPLE NUTSEDGE; PREEMERGENCE 1000 GM/HA,0%
same,plant response,IVY MORNINGLORY; POSTEMERGENCE 0250 GM/HA,0%
same,plant response,IVY MORNINGLORY; POSTEMERGENCE 0500 GM/HA,0%
same,plant response,IVY MORNINGLORY; POSTEMERGENCE 1000 GM/HA,0%
same,plant response,IVY MORNINGLORY; PREEMERGENCE 0250 GM/HA,0%
same,plant response,IVY MORNINGLORY; PREEMERGENCE 0500 GM/HA,0%
same,plant response,IVY MORNINGLORY; PREEMERGENCE 1000 GM/HA,0%
same,plant response,JIMSONWEED; POSTEMERGENCE 0250 GM/HA,0%
same,plant response,JIMSONWEED; POSTEMERGENCE 0500 GM/HA,0%
same,plant response,JIMSONWEED; POSTEMERGENCE 1000 GM/HA,0%
same,plant response,JIMSONWEED; PREEMERGENCE 0250 GM/HA,0%
same,plant response,JIMSONWEED; PREEMERGENCE 0500 GM/HA,0%
same,plant response,JIMSONWEED; PREEMERGENCE 1000 GM/HA,0%
C=C(c1ccccc1Cl)C(O)(Cn1cncn1)c1ccc(F)cc1F (stereo not drawn) [Example 35],plant response,G4646 CORN; POSTEMERGENCE 0250 GM/HA,0%
same,plant response,G4646 CORN; POSTEMERGENCE 0500 GM/HA,0%
same,plant response,G4646 CORN; PREEMERGENCE 0064 GM/HA,0%
same,plant response,G4646 CORN; PREEMERGENCE 0125 GM/HA,0%
same,plant response,G4646 CORN; PREEMERGENCE 0250 GM/HA,0%
same,plant response,G4646 CORN; PREEMERGENCE 0500 GM/HA,0%
same,plant response,GREEN FOXTAIL; POSTEMERGENCE 0250 GM/HA,0%
same,plant response,GREEN FOXTAIL; POSTEMERGENCE 0500 GM/HA,40%
same,plant response,GREEN FOXTAIL; PREEMERGENCE 0064 GM/HA,30%
same,plant response,GREEN FOXTAIL; PREEMERGENCE 0125 GM/HA,70%
same,plant response,GREEN FOXTAIL; PREEMERGENCE 0250 GM/HA,80%
same,plant response,GREEN FOXTAIL; PREEMERGENCE 0500 GM/HA,100%
same,plant response,GIANT FOXTAIL; POSTEMERGENCE 0250 GM/HA,0%
same,plant response,GIANT FOXTAIL; POSTEMERGENCE 0500 GM/HA,60%
same,plant response,GIANT FOXTAIL; PREEMERGENCE 0064 GM/HA,0%
same,plant response,GIANT FOXTAIL; PREEMERGENCE 0125 GM/HA,50%
same,plant response,GIANT FOXTAIL; PREEMERGENCE 0250 GM/HA,80%
same,plant response,GIANT FOXTAIL; PREEMERGENCE 0500 GM/HA,100%
same,plant response,FALL PANICUM; PREEMERGENCE 0064 GM/HA,0%
same,plant response,FALL PANICUM; PREEMERGENCE 0125 GM/HA,50%
same,plant response,FALL PANICUM; PREEMERGENCE 0250 GM/HA,80%
same,plant response,FALL PANICUM; PREEMERGENCE 0500 GM/HA,100%
same,plant response,LARGE CRABGRASS; POSTEMERGENCE 0250 GM/HA,30%
same,plant response,LARGE CRABGRASS; POSTEMERGENCE 0500 GM/HA,30%
same,plant response,LARGE CRABGRASS; PREEMERGENCE 0064 GM/HA,50%
same,plant response,LARGE CRABGRASS; PREEMERGENCE 0125 GM/HA,70%
same,plant response,LARGE CRABGRASS; PREEMERGENCE 0250 GM/HA,95%
same,plant response,LARGE CRABGRASS; PREEMERGENCE 0500 GM/HA,100%
same,plant response,BARNYARDGRASS; POSTEMERGENCE 0250 GM/HA,40%
same,plant response,BARNYARDGRASS; POSTEMERGENCE 0500 GM/HA,60%
same,plant response,BARNYARDGRASS; PREEMERGENCE 0064 GM/HA,0%
same,plant response,BARNYARDGRASS; PREEMERGENCE 0125 GM/HA,60%
same,plant response,BARNYARDGRASS; PREEMERGENCE 0250 GM/HA,40%
same,plant response,BARNYARDGRASS; PREEMERGENCE 0500 GM/HA,100%
same,plant response,G522 SORGHUM; POSTEMERGENCE 0250 GM/HA,0%
same,plant response,G522 SORGHUM; POSTEMERGENCE 0500 GM/HA,50%
same,plant response,G522 SORGHUM; PREEMERGENCE 0064 GM/HA,0%
same,plant response,G522 SORGHUM; PREEMERGENCE 0125 GM/HA,0%
same,plant response,G522 SORGHUM; PREEMERGENCE 0250 GM/HA,0%
same,plant response,G522 SORGHUM; PREEMERGENCE 0500 GM/HA,0%
same,plant response,PURPLE NUTSEDGE; POSTEMERGENCE 0250 GM/HA,0%
same,plant response,PURPLE NUTSEDGE; POSTEMERGENCE 0500 GM/HA,0%
same,plant response,PURPLE NUTSEDGE; PREEMERGENCE 0125 GM/HA,0%
same,plant response,PURPLE NUTSEDGE; PREEMERGENCE 0250 GM/HA,0%
same,plant response,PURPLE NUTSEDGE; PREEMERGENCE 0500 GM/HA,50%
same,plant response,IVY MORNINGLORY; POSTEMERGENCE 0250 GM/HA,20%
same,plant response,IVY MORNINGLORY; POSTEMERGENCE 0500 GM/HA,30%
same,plant response,IVY MORNINGLORY; PREEMERGENCE 0064 GM/HA,0%
same,plant response,IVY MORNINGLORY; PREEMERGENCE 0125 GM/HA,0%
same,plant response,IVY MORNINGLORY; PREEMERGENCE 0250 GM/HA,0%
same,plant response,IVY MORNINGLORY; PREEMERGENCE 0500 GM/HA,30%
same,plant response,JIMSONWEED; POSTEMERGENCE 0250 GM/HA,20%
same,plant response,JIMSONWEED; POSTEMERGENCE 0500 GM/HA,20%
same,plant response,JIMSONWEED; PREEMERGENCE 0064 GM/HA,0%
same,plant response,JIMSONWEED; PREEMERGENCE 0125 GM/HA,0%
same,plant response,JIMSONWEED; PREEMERGENCE 0250 GM/HA,80%
same,plant response,JIMSONWEED; PREEMERGENCE 0500 GM/HA,30%

# Source: patent US4965280A, “Antifungal carbinols” (E. I. Du Pont de Nemours and Company, priority 1989, dated 1990)
